Our source for the IC50 and inhibition values is ChEMBL document CHEMBL5137114, “Discovery of IHMT-MST1-58 as a Novel, Potent, and Selective MST1 Inhibitor for the Treatment of Type 1/2 Diabetes” (J Med Chem, 2022).

Some results are limits rather than exact numbers.

The target of one assay is T1, Serine/threonine-protein kinase 4 (Homo sapiens, UniProt Q13043).
T1 sequence (Q13043 whole entry): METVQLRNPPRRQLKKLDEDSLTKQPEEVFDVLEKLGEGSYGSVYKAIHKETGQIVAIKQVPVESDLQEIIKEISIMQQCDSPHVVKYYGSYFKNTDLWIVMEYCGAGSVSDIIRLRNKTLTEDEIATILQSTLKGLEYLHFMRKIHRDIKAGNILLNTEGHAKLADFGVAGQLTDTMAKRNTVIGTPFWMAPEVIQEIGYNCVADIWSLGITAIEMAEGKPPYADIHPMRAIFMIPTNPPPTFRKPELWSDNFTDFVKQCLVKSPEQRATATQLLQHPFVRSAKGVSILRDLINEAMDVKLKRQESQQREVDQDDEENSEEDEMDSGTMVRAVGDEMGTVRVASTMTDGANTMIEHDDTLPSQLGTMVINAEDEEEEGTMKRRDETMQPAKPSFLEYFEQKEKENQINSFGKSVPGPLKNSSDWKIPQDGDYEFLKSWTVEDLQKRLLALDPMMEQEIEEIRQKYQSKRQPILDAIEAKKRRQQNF
In words: Inhibition of recombinant full length N-terminal GST -tagged human MST1 expressed in baculovirus infected Sf9 insect cells using KKSRGDYMTMQIG as substrate incubated for 1 hr in presence of ATP by ADP-Glo luminescent assay.
Settings: not given
In general terms: In ADP-Glo the light output rises with the ADP produced.
Usually IC50 stands for the concentration that inhibits the measured activity by half. For `CN1C(=O)C(c2ccccc2Br)N(C)c2nc(Nc3ccc(S(N)(=O)=O)cc3)ncc21` (stereo not given), the IC50 amounted to 57 nM.
For `CN1C(=O)C(CC2CC2)N(C)c2nc(Nc3ccc(S(N)(=O)=O)cc3)ncc21` (stereo not given), the IC50 was found to be 211 nM.
`CN1C(=O)C(c2cccc(C(F)(F)F)c2)N(C)c2nc(Nc3ccc(S(N)(=O)=O)cc3)ncc21` (stereo not given): the IC50 turned out to be 2710 nM.
As for `CCc1ccccc1C1C(=O)N(C)c2cnc(Nc3ccc(S(N)(=O)=O)cc3)nc2N1C` (stereo not given), the IC50 was determined as 51 nM.
The same measure, in the same setting: the same measure for `COc1cccc(C2C(=O)N(C)c3cnc(Nc4ccc(S(N)(=O)=O)cc4)nc3N2C)c1` (stereo not given): 954 nM; for `CN1C(=O)C(c2ccccc2Cl)N(C)c2nc(Nc3ccc(S(N)(=O)=O)cc3)ncc21` (stereo not given): 129 nM.
On to `Cc1ccccc1C1C(=O)N(C)c2cnc(Nc3ccc(C(C)(C)C#N)cc3)nc2N1C` (stereo not given), for which the IC50 was 153 nM.
As to `CN1C(=O)C(c2c(F)cccc2F)N(C)c2nc(Nc3ccc(S(=O)(=O)N(C)C)cc3)ncc21` (stereo not given), the IC50 came to 181 nM.
As to `CN1C(=O)c2sccc2N(C)c2nc(Nc3ccc(S(N)(=O)=O)cc3)ncc21`, the IC50 is 104 nM.
As for `Cc1ccccc1C1C(=O)N(C)c2cnc(Nc3ccc(S(=O)(=O)NCC4CC4)cc3)nc2N1C` (stereo not given), the IC50 worked out at 60 nM.
Take `Cc1ccccc1C1C(=O)N(C)c2cnc(Nc3ccc(S(=O)(=O)NC4CC4)cc3)nc2N1C` (stereo not given): the IC50 was determined as 53 nM.
In the case of `CNS(=O)(=O)c1ccc(Nc2ncc3c(n2)N(C)C(c2ccccc2C)C(=O)N3C)cc1` (stereo not given), the IC50 was found to be 104 nM.
As for `Cc1ccc(F)cc1C1C(=O)N(C)c2cnc(Nc3ccc(S(N)(=O)=O)cc3)nc2N1C` (stereo not given), the IC50 worked out at 168 nM.
Consider `CNS(=O)(=O)c1ccc(Nc2ncc3c(n2)N(C)C(c2c(F)cccc2F)C(=O)N3C)cc1` (stereo not given), for which the IC50 was found to be 318 nM.
On the same count and under the same terms, the same measure for `CN1C(=O)C(c2ccc(F)cc2)N(C)c2nc(Nc3ccc(S(N)(=O)=O)cc3)ncc21` (stereo not given): 1770 nM; for `CN1C(=O)C(c2cccc(Cl)c2)N(C)c2nc(Nc3ccc(S(N)(=O)=O)cc3)ncc21` (stereo not given): 989 nM.
Still for that read-out and setting: the same measure for `CCC1C(=O)N(C)c2cnc(Nc3ccc(S(N)(=O)=O)cc3)nc2N1C` (stereo not given): 479 nM; for `CN1C(=O)C(c2ccccc2)N(C)c2nc(Nc3ccc(S(N)(=O)=O)cc3)ncc21` (stereo not given): 383 nM.
On the same count and under the same terms, the same measure for `Cc1ccccc1C1C(=O)N(C)c2cnc(Nc3ccc(S(=O)(=O)N(C)C)cc3)nc2N1C` (stereo not given): 219 nM; for `CCNS(=O)(=O)c1ccc(Nc2ncc3c(n2)N(C)C(c2ccccc2C)C(=O)N3C)cc1` (stereo not given): 119 nM.
For `CC(C)C1C(=O)N(C)c2cnc(Nc3ccc(S(N)(=O)=O)cc3)nc2N1C` (stereo not given), the IC50 was 254 nM.
Consider `CN1CC(=O)N(C)c2cnc(Nc3ccc(S(N)(=O)=O)cc3)nc21`, for which the IC50 was 495 nM.
Still for that read-out and setting: the same measure for `Cc1c(F)cccc1C1C(=O)N(C)c2cnc(Nc3ccc(S(N)(=O)=O)cc3)nc2N1C` (stereo not given): 419 nM.
For `Cc1ccccc1C1C(=O)N(C)c2cnc(Nc3ccc(C4(C#N)CC4)cc3)nc2N1C` (stereo not given), the IC50 was found to be 256 nM.
As to `CN1C(=O)C(Cc2ccccc2)N(C)c2nc(Nc3ccc(S(N)(=O)=O)cc3)ncc21` (stereo not given), the IC50 was more than 10000 nM.
The same measure, in the same setting: the same measure for `COc1ccccc1C1C(=O)N(C)c2cnc(Nc3ccc(S(N)(=O)=O)cc3)nc2N1C` (stereo not given): 251 nM; for `CC1C(=O)N(C)c2cnc(Nc3ccc(S(N)(=O)=O)cc3)nc2N1C` (stereo not given): 313 nM.
Turning to `CN1C(=O)C2(CCCCC2)N(C)c2nc(Nc3ccc(S(N)(=O)=O)cc3)ncc21`, the IC50 is 272 nM.

For the next assay, the system named is RAW264.7. In words: Inhibition of MST1 in mouse RAW264.7 cells assessed as reduction in H2O2-stimulated MST1/MST2 autophosphorylation at T183/T180 residues preincubated for 2 hrs followed by H2O2 addition for 30 mins by Western blotting analysis. It is filed as cell-based. The settings on record: dose 0.1-10 µM, time 2.5 hrs, DDE = dose-dependent effect. (Immunoblotting shows a protein as a band on a membrane.)
In the case of `CN1C(=O)c2sccc2N(C)c2nc(Nc3ccc(S(N)(=O)=O)cc3)ncc21`, the inhibition entry is “Dde”.

A further assay relates to RAW264.7. In words: Inhibition of MST1 in mouse RAW264.7 cells assessed as reduction in H2O2-stimulated MOB1 phosphorylation at T35 residue preincubated for 2 hrs followed by H2O2 addition for 30 mins by Western blotting analysis. It is filed as cell-based. Conditions: dose 0.1-10 µM, time 2.5 hrs, DDE = dose-dependent effect.
Regarding `CN1C(=O)c2sccc2N(C)c2nc(Nc3ccc(S(N)(=O)=O)cc3)ncc21`, the inhibition entry is “Dde”.
